Experimental data reported in patent publication US11427553B2, “Dihydrooxadiazinones” (Bayer Aktiengesellschaft, priority 2017, dated 2022).

Tests used:
[1] = Assay 6 in vitro metabolic stability in cryopreserved human hepatocytes (CL, Fmax); type: in vitro ADME; conditions: 1 μM test compound; for Clblood: hepatic in vivo blood clearance calculated (well-stirred) from half-life in cryopreserved human hepatocytes; for Fmax: maximal oral bioavailability calculated from half-life in cryopreserved human hepatocytes
Summary of the method: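 Test compound at 1 μM incubated with cryopreserved human hepatocytes (1.0×10^6 viable cells/ml, WME with 5% FCS) under shaking, with samples taken from 2 to 90 min, methanol-quenched and analysed by LC-MS/MS. Half-life gave intrinsic clearance, scaled with liver blood flow and hepatocellularity to CL and Fmax.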

[2] = system: HS578T cells; experiment: Assay 2 cell proliferation measurement, HS578T; type: cell-based; conditions: Homo sapiens, Hs-578T, Breast, ductal carcinoma, read-out: Anti-proliferation IC50 [nM] HS578T
Experimental: (§1) Cell Proliferation Measurement
(§2) The antiproliferative activity of the compounds of the general formula (I) was examined in vitro in human cancer cells. For this purpose, 500 cells, including HeLa cells, A2058 cells, DU145 cells, HMCB cells, IGR37 cells, NCIH1734 cells, OSRC2 cells, or 750 cells, including CAL51 cells, COL0741 cells, DBTRG05MG cells, DKMG cells, G292CLONEA141B1 cells, GB1 cells, HEL cells, HEL9217 cells, JHUEM1 cells, L3.3 cells, LI7 cells, TE4 cells, or 1000 cells, including 8505C cells, HUT78 cells, NCIH1563 cells, NCIH2122 cells, NCIH2172 cells, RVH421 cells, SKMEL3 cells, or 1500 cells, including C32 cells, HS578T cells, JHOM1 cells, NCIH196 cells, OVKATE cells, were plated in 384-well plates with appropriate growth medium and incubated at 37° C. overnight. After 24 h, the cells on the test plate were treated with the compounds of the general formula (I) as and incubated at 37° C. for 72 h. The compounds were added to the cells by means of an HP D300 digital dispenser in a 10 (or more)-step dilution series. As control, the cells were treated with vehicle (DMSO at 0.3% final concentration). After 72 h, the cells were treated with 20 μl/well of 50% CTG solution in PBS (Promega Cell Titer Glo (catalogue #G755B and G756B)) and incubated at room temperature for 10 min, and luminescence was measured by means of a VICTOR V (Perkin Elmer), in order to determine cell viability at the end of treatment. The percentage effect on cell growth and the IC50 derived therefrom were determined for each test substance using the values from untreated wells (=percent viability). The IC50 values were calculated using a 4-parameter fit.

[3] = system: DKMG cells; experiment: Assay 2 cell proliferation measurement, DKMG; type: cell-based; conditions: Homo sapiens, Glioma_astrocytoma, read-out: Anti-proliferation IC50 [nM] DKMG
Experimental: as §1, §2

[4] = system: NCIH2172 cells; experiment: Assay 2 cell proliferation measurement, H2172; type: cell-based; conditions: Homo sapiens, NCI-H2172, Lung non small cell carcinoma, read-out: Anti-proliferation IC50 [nM] H2172
Experimental: as §1, §2

[5] = system: NCIH196 cells; experiment: Assay 2 cell proliferation measurement, H196; type: cell-based; conditions: Homo sapiens, NCI-H196, Lung small cell carcinoma, read-out: Anti-proliferation IC50 [nM] H196
Experimental: as §1, §2

[6] = system: A2058 cells; experiment: Assay 2 cell proliferation measurement, A2058; type: cell-based; conditions: Homo sapiens, Melanoma, read-out: Anti-proliferation IC50 [nM] A2058
Experimental: as §1, §2

[7] = system: L3.3 cells; experiment: Assay 2 cell proliferation measurement, L3.3; type: cell-based; conditions: Homo sapiens, Pancreas NS, read-out: Anti-proliferation IC50 [nM] L3.3
Experimental: as §1, §2

[8] = system: IGR-37 xenograft (Melanoma); experiment: Assay 3 in vivo xenotransplantation model, IGR-37; conditions: IGR-37 melanoma xenograft, mice, 10 mg/kg 2QD p.o.; * P < 0.05 vs control
Source text: In Vivo Xenotransplantation Models
The anti-tumor activities of Compounds of examples 135 and 146 were examined in murine xenotransplantation models of human cancer. For this purpose, mice were implanted subcutaneously with tumor cells. At a mean tumor size of 20-40 mm^2 animals were randomized into treatment and control groups (at least n=10 animals/group) and treatment started with vehicle only or respective Compound (formulation: 90% PEG400/10% Ethanol; application route: per os (“p.o.”), orally). The oral application volume was 10 ml/kg. In the case of twice daily treatments, the time interval between two applications per day was 6-7 h. The tumor size and the body weight were determined at least weekly. The tumor area was detected by means of an electronic caliper [length (mm)×width (mm)]. The experiment was ended when the study reached the pre-determined ethical endpoint based on German and European animal welfare regulations. In vivo anti-tumor efficacy is presented as T/C ratio at study end (Treatment/Control; mean tumor weight of treatment group/mean tumor weight of control group) in Table 8. A compound having a T/C below 0.5 is defined as active (i.e., effective). Statistical analysis was assessed using SigmaStat software. A one-way analysis of variance was performed and differences to the control were compared by a pair-wise comparison procedure (Dunn's method).

## O=C1NN=C(c2ccc(-c3ccc(F)cc3)c(C(F)(F)F)c2)CO1 [Example 3, 5-[4′-Fluoro-2-(trifluoromethyl)biphenyl-4-yl]-3,6-dihydro-2H-1,3,4-oxadiazin-2-one]
[1]
  Clblood: 6.5 mL/min/kg
  Fmax: 70%

## O=C1NN=C(c2ccc(-c3ccc(Cl)cc3)c(C(F)(F)F)c2)CO1 [Example 31, 5-[4′-Chloro-2-(trifluoromethyl)biphenyl-4-yl]-3,6-dihydro-2H-1,3,4-oxadiazin-2-one]
[1]
  Clblood: 10.7 mL/min/kg
  Fmax: 52%

## C[C@@H]1OC(=O)NN=C1c1ccc(-c2ccc(F)cc2)c(C(F)(F)F)c1 [Example 135, (6S)-5-[4′-Fluoro-2-(trifluoromethyl)biphenyl-4-yl]-6-methyl-3,6-dihydro-2H-1,3,4-oxadiazin-2-one]
[2]
  IC50: 33 nM
[3]
  IC50: 22 nM
[4]
  IC50: 38 nM
[5]
  IC50: 150 nM
[6]
  IC50: 38 nM
[7]
  IC50: 82 nM
[8]
  T/C (mean final tumor weight treatment / control): 0.06*
[1]
  Clblood: 16.3 mL/min/kg
  Fmax: 26%

## O=C1NN=C(c2ccc(-c3cnn(C(F)F)c3)c(C(F)(F)F)c2)CO1 [Example 146, 5-{4-[1-(Difluoromethyl)-1H-pyrazol-4-yl]-3-(trifluoromethyl)phenyl}-3,6-dihydro-2H-1,3,4-oxadiazin-2-one]
[2]
  IC50: 20 nM
[3]
  IC50: 13 nM
[4]
  IC50: 37 nM
[5]
  IC50: 32 nM
[6]
  IC50: 25 nM
[7]
  IC50: 15 nM
[8]
  T/C (mean final tumor weight treatment / control): 0.05*
[1]
  Clblood: 8.83 mL/min/kg
  Fmax: 60%

## C[C@@H]1OC(=O)NN=C1c1ccc(-n2ccc(C(F)(F)F)n2)c(C(F)(F)F)c1 [Example 265, (6S)-6-Methyl-5-{3-(trifluoromethyl)-4-[3-(trifluoromethyl)-1H-pyrazol-1-yl]phenyl}-3,6-dihydro-2H-1,3,4-oxadiazin-2-one]
[2]
  IC50: 116 nM
[3]
  IC50: 59 nM
[4]
  IC50: 101 nM
[5]
  IC50: 355 nM
[6]
  IC50: 96 nM
[7]
  IC50: 312 nM
[8]
  T/C (mean final tumor weight treatment / control): 0.27*
[1]
  Clblood: 8.5 mL/min/kg
  Fmax: 61%
